ChEMBL document CHEMBL1629456, “ApoA-I mimetic peptides promote pre-β HDL formation in vivo causing remodeling of HDL and triglyceride accumulation at higher dose” (Bioorg Med Chem, 2010)
*1 amine or outer side, *2 acyl side, *3 side chain or, on linkers, in order; H or OH if unused. Where a SMILES comes first, the peptide text is derived from it. [ ]: non-standard residue; d: D form. Gly(oct-7-en-1-yl) = C=CCCCCCC[C@H](N)C(=O)O; Ala(5-hexenyl) = C=CCCCCC[C@H](N)C(=O)O; X2 = C=CCCCC[C@H](N[*:1])C(=O)[*:2]

Biological target: Phospholipid-transporting ATPase ABCA1 (Mus musculus, UniProt P41233)
Sequence (P41233 whole entry): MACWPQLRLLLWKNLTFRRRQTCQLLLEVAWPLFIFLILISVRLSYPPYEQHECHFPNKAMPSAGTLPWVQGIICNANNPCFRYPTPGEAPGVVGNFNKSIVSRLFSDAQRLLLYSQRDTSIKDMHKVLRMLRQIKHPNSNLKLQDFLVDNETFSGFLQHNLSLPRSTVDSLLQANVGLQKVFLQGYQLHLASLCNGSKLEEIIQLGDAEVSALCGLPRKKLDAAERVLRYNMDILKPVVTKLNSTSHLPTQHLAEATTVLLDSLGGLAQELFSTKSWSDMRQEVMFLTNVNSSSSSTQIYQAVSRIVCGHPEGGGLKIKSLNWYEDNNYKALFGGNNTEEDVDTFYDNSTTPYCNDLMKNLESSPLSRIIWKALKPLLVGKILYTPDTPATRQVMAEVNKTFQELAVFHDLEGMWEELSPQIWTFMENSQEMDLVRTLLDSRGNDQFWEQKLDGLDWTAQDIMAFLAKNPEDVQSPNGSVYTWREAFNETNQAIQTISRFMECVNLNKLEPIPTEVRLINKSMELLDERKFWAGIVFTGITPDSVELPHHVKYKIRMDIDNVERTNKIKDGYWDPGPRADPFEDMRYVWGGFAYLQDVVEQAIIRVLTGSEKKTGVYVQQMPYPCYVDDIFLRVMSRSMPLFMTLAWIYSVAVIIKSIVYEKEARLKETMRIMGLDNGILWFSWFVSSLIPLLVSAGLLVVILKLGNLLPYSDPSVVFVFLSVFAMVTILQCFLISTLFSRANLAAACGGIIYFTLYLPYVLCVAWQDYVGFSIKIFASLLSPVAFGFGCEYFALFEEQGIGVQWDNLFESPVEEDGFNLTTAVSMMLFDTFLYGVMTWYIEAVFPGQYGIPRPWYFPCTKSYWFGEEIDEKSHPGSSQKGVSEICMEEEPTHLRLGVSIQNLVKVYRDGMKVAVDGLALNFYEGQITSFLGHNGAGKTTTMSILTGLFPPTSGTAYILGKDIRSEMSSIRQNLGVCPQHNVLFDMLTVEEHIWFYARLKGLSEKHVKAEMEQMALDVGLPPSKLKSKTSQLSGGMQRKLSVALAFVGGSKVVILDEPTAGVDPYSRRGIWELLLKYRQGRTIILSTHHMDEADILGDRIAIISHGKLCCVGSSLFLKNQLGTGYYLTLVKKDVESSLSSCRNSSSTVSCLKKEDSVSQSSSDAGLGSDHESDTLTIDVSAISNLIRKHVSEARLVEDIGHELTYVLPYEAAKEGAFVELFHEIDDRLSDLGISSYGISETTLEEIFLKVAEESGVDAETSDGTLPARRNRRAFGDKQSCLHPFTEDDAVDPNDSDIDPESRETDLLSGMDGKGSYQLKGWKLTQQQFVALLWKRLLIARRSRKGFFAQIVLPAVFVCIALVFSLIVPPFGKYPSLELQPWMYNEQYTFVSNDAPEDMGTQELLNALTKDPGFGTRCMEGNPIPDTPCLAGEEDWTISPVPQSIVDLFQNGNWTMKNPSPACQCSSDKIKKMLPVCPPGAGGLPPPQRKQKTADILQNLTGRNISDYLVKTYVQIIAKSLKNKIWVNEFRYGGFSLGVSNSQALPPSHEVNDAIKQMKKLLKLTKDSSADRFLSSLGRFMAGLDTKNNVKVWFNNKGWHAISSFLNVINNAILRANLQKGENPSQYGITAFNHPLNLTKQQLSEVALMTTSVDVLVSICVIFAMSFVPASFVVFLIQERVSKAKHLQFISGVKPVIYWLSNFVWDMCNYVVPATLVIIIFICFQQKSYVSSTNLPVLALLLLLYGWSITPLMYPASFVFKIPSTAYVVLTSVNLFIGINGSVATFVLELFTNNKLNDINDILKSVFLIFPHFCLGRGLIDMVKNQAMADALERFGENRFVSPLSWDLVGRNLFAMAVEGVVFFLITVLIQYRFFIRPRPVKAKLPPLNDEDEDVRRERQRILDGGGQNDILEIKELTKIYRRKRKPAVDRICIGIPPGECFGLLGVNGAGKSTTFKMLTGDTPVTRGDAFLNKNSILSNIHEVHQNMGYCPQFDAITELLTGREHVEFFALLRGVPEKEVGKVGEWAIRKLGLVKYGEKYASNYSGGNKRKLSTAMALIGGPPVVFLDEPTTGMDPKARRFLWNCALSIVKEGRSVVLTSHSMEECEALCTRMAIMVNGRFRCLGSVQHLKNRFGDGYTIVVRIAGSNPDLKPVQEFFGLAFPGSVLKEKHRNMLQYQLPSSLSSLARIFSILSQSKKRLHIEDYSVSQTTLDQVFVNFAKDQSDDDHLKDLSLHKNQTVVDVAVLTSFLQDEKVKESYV
Experiment: Induction of ABCA1-mediated [3H]cholesterol efflux in mouse RAW 264.7 macrophages after 24 hrs

| EC50 | SMILES |
| --- | --- |
| > 100 µM | C=CCCCC[C@H](NC(=O)[C@@H](NC(=O)[C@@H]1CCCN1C(C)=O)C(C)C)C(=O)N[C@@H](CC(=O)O)C(=O)N[C@@H](CCC(=O)O)C(=O)N[C@@H](Cc1ccccc1)C(=O)N[C@@H](CCCNC(=N)N)C(=O)N[C@@H](CCC(=O)O)C(=O)N[C@@H](CCCCN)C(=O)N[C@@H](CC(C)C)C(=O)N[C@@H](CC(N)=O)C(=O)N[C@@H](CCC(=O)O)C(=O)N[C@@H](CCC(=O)O)C(=O)N[C@@H](CC(C)C)C(=O)N[C@@H](CCC(=O)O)C(=O)N[C@@H](C)C(=O)N[C@@H](CC(C)C)C(=O)N[C@@H](CCCCN)C(=O)N[C@@H](CCC(N)=O)C(=O)N[C@@H](CCCCN)C(=O)N[C@@H](CC(C)C)C(=O)N[C@@H](CCCCN)C(N)=O |
| 1.8 µM | C=CCCCCC[C@H](NC(=O)[C@H](CCC(N)=O)NC(=O)[C@H](CCCCN)NC(=O)[C@H](CC(C)C)NC(=O)[C@H](C)NC(=O)[C@H](CCC(=O)O)NC(=O)[C@H](CC(C)C)NC(=O)[C@H](CCCCCC=C)NC(=O)[C@H](CCC(=O)O)NC(=O)[C@H](CC(N)=O)NC(=O)[C@H](CC(C)C)NC(=O)[C@H](CCCCN)NC(=O)[C@H](CCC(=O)O)NC(=O)[C@H](CCCNC(=N)N)NC(=O)[C@H](CCCCCC=C)NC(=O)[C@H](CCC(=O)O)NC(=O)[C@H](CC(=O)O)NC(=O)[C@H](CC(C)C)NC(=O)[C@@H](NC(=O)[C@@H]1CCCN1C(C)=O)C(C)C)C(=O)N[C@@H](CC(C)C)C(=O)N[C@@H](CCCCN)C(N)=O (Ac-PVLDE[Ala(5-hexenyl)]REKLNE[Ala(5-hexenyl)]LEALKQ[Ala(5-hexenyl)]LK-NH2) |
| > 100 µM | C=CCCC[C@@H](NC(=O)[C@H](CCC(=O)O)NC(=O)[C@H](CC(N)=O)NC(=O)[C@H](CC(C)C)NC(=O)[C@H](CCCCN)NC(=O)[C@H](CCC(=O)O)NC(=O)[C@H](CCCNC(=N)N)NC(=O)[C@H](Cc1ccccc1)NC(=O)[C@H](CCC(=O)O)NC(=O)[C@H](CC(=O)O)NC(=O)[C@H](CC(C)C)NC(=O)[C@@H](NC(=O)[C@@H]1CCCN1C(C)=O)C(C)C)C(=O)N[C@@H](CC(C)C)C(=O)N[C@@H](CCC(=O)O)C(=O)N[C@@H](C)C(=O)N[C@@H](CC(C)C)C(=O)N[C@@H](CCCCN)C(=O)N[C@@H](CCC(N)=O)C(=O)N[C@@H](CCCCN)C(=O)N[C@@H](CC(C)C)C(=O)N[C@@H](CCCCN)C(N)=O |
| 0.9 µM | C=CCCCCC[C@H](NC(=O)[C@H](CCC(N)=O)NC(=O)[C@H](CCCCN)NC(=O)[C@H](CC(C)C)NC(=O)[C@H](C)NC(=O)[C@H](CCC(=O)O)NC(=O)[C@H](CC(C)C)NC(=O)[C@H](CCCCCC=C)NC(=O)[C@H](CCC(=O)O)NC(=O)[C@H](CC(N)=O)NC(=O)[C@H](CC(C)C)NC(=O)[C@H](CCCCN)NC(=O)[C@H](CCC(=O)O)NC(=O)[C@H](CCCN=C(N)N)NC(=O)[C@H](Cc1ccccc1)NC(=O)[C@H](CCC(=O)O)NC(=O)[C@H](CC(=O)O)NC(=O)[C@H](CC(C)C)NC(=O)[C@@H](NC(=O)[C@@H]1CCCN1C(C)=O)C(C)C)C(=O)N[C@@H](CC(C)C)C(=O)N[C@@H](CCCCN)C(N)=O (Ac-PVLDEFREKLNE[Ala(5-hexenyl)]LEALKQ[Ala(5-hexenyl)]LK-NH2) |
| > 100 µM | C=CCCCC[C@@H](NC(=O)[C@H](CCC(=O)O)NC(=O)[C@H](CCC(=O)O)NC(=O)[C@H](CC(N)=O)NC(=O)[C@H](CC(C)C)NC(=O)[C@H](CCCCN)NC(=O)[C@H](CCC(=O)O)NC(=O)[C@H](CCCN=C(N)N)NC(=O)[C@H](Cc1ccccc1)NC(=O)[C@H](CCC(=O)O)NC(=O)[C@H](CC(=O)O)NC(=O)[C@H](CC(C)C)NC(=O)[C@@H](NC(=O)[C@@H]1CCCN1C(C)=O)C(C)C)C(=O)N[C@@H](CCC(=O)O)C(=O)N[C@@H](C)C(=O)N[C@@H](CC(C)C)C(=O)N[C@@H](CCCCN)C(=O)N[C@@H](CCC(N)=O)C(=O)N[C@@H](CCCCN)C(=O)N[C@@H](CC(C)C)C(=O)N[C@@H](CCCCN)C(N)=O |
| > 100 µM | C=CCCCC[C@H](NC(=O)[C@H](C)NC(=O)[C@H](CCC(=O)O)NC(=O)[C@H](CC(C)C)NC(=O)[C@H](CCC(=O)O)NC(=O)[C@H](CCC(=O)O)NC(=O)[C@H](CC(N)=O)NC(=O)[C@H](CC(C)C)NC(=O)[C@H](CCCCN)NC(=O)[C@H](CCC(=O)O)NC(=O)[C@H](CCCNC(=N)N)NC(=O)[C@H](Cc1ccccc1)NC(=O)[C@H](CCC(=O)O)NC(=O)[C@H](CC(=O)O)NC(=O)[C@H](CC(C)C)NC(=O)[C@@H](NC(=O)[C@@H]1CCCN1C(C)=O)C(C)C)C(=O)N[C@@H](CCCCN)C(=O)N[C@@H](CCC(N)=O)C(=O)N[C@@H](CCCCN)C(=O)N[C@@H](CC(C)C)C(=O)N[C@@H](CCCCN)C(N)=O |
| 1.4 µM | C=CCCCC[C@H](NC(=O)[C@H](CCC(=O)O)NC(=O)[C@H](CC(N)=O)NC(=O)[C@H](CC(C)C)NC(=O)[C@H](CCCCN)NC(=O)[C@H](CCC(=O)O)NC(=O)[C@H](CCCNC(=N)N)NC(=O)[C@H](Cc1ccccc1)NC(=O)[C@H](CCC(=O)O)NC(=O)[C@H](CC(=O)O)NC(=O)[C@H](CC(C)C)NC(=O)[C@@H](NC(=O)[C@@H]1CCCN1C(C)=O)C(C)C)C(=O)N[C@@H](CC(C)C)C(=O)N[C@@H](CCC(=O)O)C(=O)N[C@@H](C)C(=O)N[C@@H](CC(C)C)C(=O)N[C@@H](CCCCN)C(=O)N[C@@H](CCC(N)=O)C(=O)N[C@@H](CCCCN)C(=O)N[C@@H](CC(C)C)C(=O)N[C@@H](CCCCN)C(N)=O (Ac-PVLDEFREKLNE[X2]LEALKQKLK-NH2) |
| > 100 µM | C=CCCCC[C@@H](NC(=O)[C@H](C)NC(=O)[C@H](CCC(=O)O)NC(=O)[C@H](CC(C)C)NC(=O)[C@H](CCC(=O)O)NC(=O)[C@H](CCC(=O)O)NC(=O)[C@H](CC(N)=O)NC(=O)[C@H](CC(C)C)NC(=O)[C@H](CCCCN)NC(=O)[C@H](CCC(=O)O)NC(=O)[C@H](CCCNC(=N)N)NC(=O)[C@H](Cc1ccccc1)NC(=O)[C@H](CCC(=O)O)NC(=O)[C@H](CC(=O)O)NC(=O)[C@H](CC(C)C)NC(=O)[C@@H](NC(=O)[C@@H]1CCCN1C(C)=O)C(C)C)C(=O)N[C@@H](CCCCN)C(=O)N[C@@H](CCC(N)=O)C(=O)N[C@@H](CCCCN)C(=O)N[C@@H](CC(C)C)C(=O)N[C@@H](CCCCN)C(N)=O |
| > 100 µM | C=CCCCC[C@@H](NC(=O)[C@H](CCC(N)=O)NC(=O)[C@H](CCCCN)NC(=O)[C@H](CC(C)C)NC(=O)[C@H](C)NC(=O)[C@H](CCC(=O)O)NC(=O)[C@H](CC(C)C)NC(=O)[C@H](CCC(=O)O)NC(=O)[C@H](CCC(=O)O)NC(=O)[C@H](CC(N)=O)NC(=O)[C@H](CC(C)C)NC(=O)[C@H](CCCCN)NC(=O)[C@H](CCC(=O)O)NC(=O)[C@H](CCCNC(=N)N)NC(=O)[C@H](Cc1ccccc1)NC(=O)[C@H](CCC(=O)O)NC(=O)[C@H](CC(=O)O)NC(=O)[C@H](CC(C)C)NC(=O)[C@@H](NC(=O)[C@@H]1CCCN1C(C)=O)C(C)C)C(=O)N[C@@H](CC(C)C)C(=O)N[C@@H](CCCCN)C(N)=O |
| 0.7 µM | C=CCCCCCC[C@H](NC(=O)[C@H](CCC(=O)O)NC(=O)[C@H](CC(N)=O)NC(=O)[C@H](CC(C)C)NC(=O)[C@H](CCCCN)NC(=O)[C@H](CCC(=O)O)NC(=O)[C@H](CCCN=C(N)N)NC(=O)[C@H](Cc1ccccc1)NC(=O)[C@H](CCC(=O)O)NC(=O)[C@H](CC(=O)O)NC(=O)[C@H](CC(C)C)NC(=O)[C@@H](NC(=O)[C@@H]1CCCN1C(C)=O)C(C)C)C(=O)N[C@@H](CC(C)C)C(=O)N[C@@H](CCC(=O)O)C(=O)N[C@@H](C)C(=O)N[C@@H](CC(C)C)C(=O)N[C@@H](CCCCN)C(=O)N[C@@H](CCC(N)=O)C(=O)N[C@@H](CCCCN)C(=O)N[C@@H](CC(C)C)C(=O)N[C@@H](CCCCN)C(N)=O (Ac-PVLDEFREKLNE[Gly(oct-7-en-1-yl)]LEALKQKLK-NH2) |
| > 100 µM | C=CCCCCC[C@@H](NC(=O)[C@H](CCC(=O)O)NC(=O)[C@H](CCCNC(=N)N)NC(=O)[C@H](Cc1ccccc1)NC(=O)[C@H](CCC(=O)O)NC(=O)[C@H](CC(=O)O)NC(=O)[C@H](CC(C)C)NC(=O)[C@@H](NC(=O)[C@@H]1CCCN1C(C)=O)C(C)C)C(=O)N[C@@H](CC(C)C)C(=O)N[C@@H](CC(N)=O)C(=O)N[C@@H](CCC(=O)O)C(=O)N[C@@H](CCC(=O)O)C(=O)N[C@@H](CC(C)C)C(=O)N[C@@H](CCC(=O)O)C(=O)N[C@@H](C)C(=O)N[C@@H](CC(C)C)C(=O)N[C@@H](CCCCN)C(=O)N[C@@H](CCC(N)=O)C(=O)N[C@@H](CCCCN)C(=O)N[C@@H](CC(C)C)C(=O)N[C@@H](CCCCN)C(N)=O |
| 213 µM | C=CCCCC[C@H](NC(=O)[C@H](CCC(N)=O)NC(=O)[C@H](CCCCN)NC(=O)[C@H](CC(C)C)NC(=O)[C@H](C)NC(=O)[C@H](CCC(=O)O)NC(=O)[C@H](CC(C)C)NC(=O)[C@H](CCC(=O)O)NC(=O)[C@H](CCC(=O)O)NC(=O)[C@H](CC(N)=O)NC(=O)[C@H](CC(C)C)NC(=O)[C@H](CCCCN)NC(=O)[C@H](CCC(=O)O)NC(=O)[C@H](CCCNC(=N)N)NC(=O)[C@H](Cc1ccccc1)NC(=O)[C@H](CCC(=O)O)NC(=O)[C@H](CC(=O)O)NC(=O)[C@H](CC(C)C)NC(=O)[C@@H](NC(=O)[C@@H]1CCCN1C(C)=O)C(C)C)C(=O)N[C@@H](CC(C)C)C(=O)N[C@@H](CCCCN)C(N)=O |
| > 100 µM | C=CCCCCC[C@@H](NC(=O)[C@@H]1CCCN1C(C)=O)C(=O)N[C@@H](CC(C)C)C(=O)N[C@@H](CC(=O)O)C(=O)N[C@@H](CCC(=O)O)C(=O)N[C@@H](Cc1ccccc1)C(=O)N[C@@H](CCCNC(=N)N)C(=O)N[C@@H](CCC(=O)O)C(=O)N[C@@H](CCCCN)C(=O)N[C@@H](CC(C)C)C(=O)N[C@@H](CC(N)=O)C(=O)N[C@@H](CCC(=O)O)C(=O)N[C@@H](CCC(=O)O)C(=O)N[C@@H](CC(C)C)C(=O)N[C@@H](CCC(=O)O)C(=O)N[C@@H](C)C(=O)N[C@@H](CC(C)C)C(=O)N[C@@H](CCCCN)C(=O)N[C@@H](CCC(N)=O)C(=O)N[C@@H](CCCCN)C(=O)N[C@@H](CC(C)C)C(=O)N[C@@H](CCCCN)C(N)=O |
| > 100 µM | C=CCCCCC[C@H](NC(=O)[C@H](CCC(=O)O)NC(=O)[C@H](CC(=O)O)NC(=O)[C@H](CC(C)C)NC(=O)[C@@H](NC(=O)[C@@H]1CCCN1C(C)=O)C(C)C)C(=O)N[C@@H](CCCNC(=N)N)C(=O)N[C@@H](CCC(=O)O)C(=O)N[C@@H](CCCCN)C(=O)N[C@@H](CC(C)C)C(=O)N[C@@H](CC(N)=O)C(=O)N[C@@H](CCC(=O)O)C(=O)N[C@@H](CCC(=O)O)C(=O)N[C@@H](CC(C)C)C(=O)N[C@@H](CCC(=O)O)C(=O)N[C@@H](C)C(=O)N[C@@H](CC(C)C)C(=O)N[C@@H](CCCCN)C(=O)N[C@@H](CCC(N)=O)C(=O)N[C@@H](CCCCN)C(=O)N[C@@H](CC(C)C)C(=O)N[C@@H](CCCCN)C(N)=O |
